Laboratory results from patent US20260060252A1, “HERBICIDAL COMBINATIONS” (UPL LTD, priority 2018, published 2026).

Assays:
Format in all cases: in vivo
Settings in all cases: clomazone 32, metribuzin 12, sulfentrazone 7.7 Fl oz/A, combination 32 + 7.7 + 12 Fl oz/A
[1] = tested on: Tall morning glory; assay: % control of Tall morning glory in Soybean
[2] = tested on: Greenfox tail; assay: % control of Greenfox tail in Soybean
[3] = tested on: Palmer amaranth; assay: % control of Palmer amaranth in Soybean

CC1(C)CON(Cc2ccccc2Cl)C1=O [Clomazone]
% control of Tall morning glory in Soybean, Actual ([1]; 14 DAA): 53.3%
% control of Tall morning glory in Soybean, Actual ([1]; 28 DAA): 30%
% control of Tall morning glory in Soybean, Actual ([1]; 45 DAA): 13%
% control of Greenfox tail in Soybean, Actual ([2]; 14 DAA): 85%
% control of Greenfox tail in Soybean, Actual ([2]; 28 DAA): 56.7%
% control of Greenfox tail in Soybean, Actual ([2]; 45 DAA): 32.9%
% control of Palmer amaranth in Soybean, Actual ([3]; 14 DAA): 60%
% control of Palmer amaranth in Soybean, Actual ([3]; 28 DAA): 43.3%
% control of Palmer amaranth in Soybean, Actual ([3]; 45 DAA): 16.4%

CSc1nnc(C(C)(C)C)c(=O)n1N [Metribuzin, 4-amino-6-(1,1-dimethylethyl)-3-(methylthio)-1,2,4-triazin-5 (4H)-one]
% control of Tall morning glory in Soybean, Actual ([1]; 14 DAA): 53.3%
% control of Tall morning glory in Soybean, Actual ([1]; 28 DAA): 39.6%
% control of Tall morning glory in Soybean, Actual ([1]; 45 DAA): 16.4%
% control of Greenfox tail in Soybean, Actual ([2]; 14 DAA): 63.4%
% control of Greenfox tail in Soybean, Actual ([2]; 28 DAA): 39.9%
% control of Greenfox tail in Soybean, Actual ([2]; 45 DAA): 22.7%
% control of Palmer amaranth in Soybean, Actual ([3]; 14 DAA): 65%
% control of Palmer amaranth in Soybean, Actual ([3]; 28 DAA): 50%
% control of Palmer amaranth in Soybean, Actual ([3]; 45 DAA): 36.1%

Cc1nn(-c2cc(NS(C)(=O)=O)c(Cl)cc2Cl)c(=O)n1C(F)F [Sulfentrazone, N-[2,4-dichloro-5-[4-(difluoromethyl)-4,5-dihydro-3-methyl-5-oxo-1H-1,2,4-triazol-1-yl]phenyl]-methane sulfonamide]
% control of Tall morning glory in Soybean, Actual ([1]; 14 DAA): 66.7%
% control of Tall morning glory in Soybean, Actual ([1]; 28 DAA): 42.8%
% control of Tall morning glory in Soybean, Actual ([1]; 45 DAA): 22.5%
% control of Greenfox tail in Soybean, Actual ([2]; 14 DAA): 68.5%
% control of Greenfox tail in Soybean, Actual ([2]; 28 DAA): 46.6%
% control of Greenfox tail in Soybean, Actual ([2]; 45 DAA): 29.7%
% control of Palmer amaranth in Soybean, Actual ([3]; 14 DAA): 80%
% control of Palmer amaranth in Soybean, Actual ([3]; 28 DAA): 62%
% control of Palmer amaranth in Soybean, Actual ([3]; 45 DAA): 39.4%
